Results as given in paper PMC7108782, “Direct interaction of metastasis-inducing S100P protein with tubulin causes enhanced cell migration without changes in cell adhesion” (Biochemical Journal, 2020).
No end group written: not given here.

Experiments:
S100P = molecular target: T1, S100P (Homo sapiens, UniProt P25815); test: Isothermal titration calorimetry (ITC) of tubulin peptides with S100P; assay type: binding; conditions: for affinity for S100P (in words): NMR and ITC
T1 construct: made in house
T1 sequence (P25815 1-95): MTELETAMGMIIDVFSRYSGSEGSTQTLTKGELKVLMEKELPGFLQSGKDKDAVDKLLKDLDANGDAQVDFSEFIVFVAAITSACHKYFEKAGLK
Procedure: Measurements were conducted using an ITC-200 instrument (Microcal) as previously described. ITC titrations were performed in 20 mM MES pH 6.1, 50 mM NaCl, 1.0 mM TCEP and 5 mM CaCl2 (for Ca^2+-form of S100P) at 25°C. Due to low solubility, peptide solutions at concentrations of 10–400 µM were placed in the cell and titrated with S100P at concentrations of 0.5–3 mM, depending on the peptide concentration. Data were integrated and fitted to a single site binding equation using Origin 7 software which was included with the ITC module (Malvern Microcal, Malvern, U.K.).

Recombinant S100P [1] = molecular target: T2, Recombinant S100P (UniProt P25815 1-95, 15N-labelled in the NMR experiments); test: SPR; competition: 20 µM peptide mixed with 1 µM S100P, applied to the α,β-tubulin-coated chip; extent of binding relative to S100P alone (100%)
T2 chain: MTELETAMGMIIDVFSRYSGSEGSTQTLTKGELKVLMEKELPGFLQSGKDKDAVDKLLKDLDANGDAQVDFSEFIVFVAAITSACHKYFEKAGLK

[2] = cited from earlier work; for Kd: ref [58], read-out: Kd for Ca2+ in absence of protein target
Excerpt: Cell migration is a complicated biological process involving many disparate cellular machines and regulatory systems. The cytoskeleton is essential for cell migration and is composed of three major types of fibres, intermediate filaments, actomyosin filaments and MTs. The intermediate filaments mainly provide mechanical strength to cells, whilst actomyosin filaments directly provide forces for cell migration. The roles of MTs in cell migration are more complex. On the one hand, MTs are a major support to cell polarity and their assembly can provide force for directional mo ...

[3] = test system: tubulin polymerisation in COS-7 S10 cells; test: In vivo tubulin polymerisation assay, COS-7 / COS-7 S10; assay type: cell-based, monkey; conditions: parental COS-7, 1 µg/ml doxycycline
Procedure: (§1) HeLa and S100P-inducible HeLa, COS-7 and S100P-inducible COS-7 cells were routinely cultured with or without doxycycline (1 µg/ml) and treated with 33 µM nocodazole for 24 h to synchronise the cells. Then the nocodazole was washed away (First release) and the synchronised cells were cultured in normal medium for 4 h to allow them to complete cell division. The nocodazole was then added again for 4 h to dissociate all the MTs. After this time, nocodazole was again removed by extensive washings (Second release) and tubulin was allowed to polymerise in the interphase of the cell cycle for different times. The cells were treated with buffer (10 mM Tris–HCl, 150 mM KCl, pH 7.4, 2% (v/v) Triton X-100) and the Triton-X100-insoluble tubulins (representing the newly formed MTs) were solubilised in Sample Buffer and quantified by Western blotting. To test the effect of tubulin-derived peptides, 20 µM T-DIC, T-DLV, T-IMN and tag-peptide alone (Supplementary Table S3) in 0.25% (v/v) DMSO as solvent, as well as the solvent control 0.25% (v/v) DMSO were added immediately after the second release in Sample Buffer and quantified at the different time points by Western blotting.

[4] = test system: tubulin polymerisation in HeLa-A19 cells; test: In vivo tubulin polymerisation assay, HeLa / HeLa-A19; assay type: cell-based, human; conditions: parental HeLa, 1 µg/ml doxycycline
Procedure: as §1

S100P - α,β-tubulin = test: SPR inhibition of S100P binding to α,β-tubulin-coated chip by peptides; design: species or system human; conditions: 20 µM peptide, 1 µM S100P
Procedure: For SPR binding assays, α,β-tubulin proteins described earlier were immobilised on a carboxymethylated dextran surface of a CM5 chip using BS^3 for use in Biocore X100. Recombinant S100P produced as described previously was used as a ligand in different concentrations at 20, 50, 100, 200, 1000, 2000 nM for calculation of the equilibrium dissociation constant (Kd) from the association/dissociation rate constants and from the extent of binding near equilibrium (Supplementary Table S2), as described previously. To detect the effects of tubulin peptides on the interaction of tubulin, different concentrations of tagged and untagged peptides were mixed with 1 µM S100P first and the mixtures were then applied to the tubulin-coated chip. The relative changes in kinetics and binding extents with different peptides were calculated using software provided by the manufacturer.

COS-7 S10 cells = test: Boyden chamber cell migration, S100P-inducible COS-7; assay type: cell-based, monkey
Excerpt: (§2) Cell migration rate (%) = M/G × 100.

COS-7 cells = test: Boyden chamber cell migration, COS-7 parental; assay type: cell-based, monkey; conditions: 5 µM colchicine, 24 h, COS-7
Excerpt: as §2

Rama 37-T25 cells = test: S100P-enhanced cell migration, Rama 37-T25; assay type: cell-based, rat; conditions: Rama 37-T25; 20 nM taxol or 5 µM colchicine, 24 h
Excerpt: as §2

HeLa-A3 cells = test: S100P-enhanced cell migration, HeLa-A3; assay type: cell-based, human; conditions: HeLa-A3; 20 nM taxol or 5 µM colchicine, 24 h
Excerpt: as §2

HeLa cells = test: Boyden chamber cell migration with MT regulators, HeLa; conditions: 5 µM colchicine, 24 h
MCF-7 cells = test: Boyden chamber cell migration with MT regulators, MCF-7
Rama 37 cells = test: Boyden chamber cell migration with MT regulators, Rama 37; conditions: 5 µM colchicine, 24 h
tubulin = conditions: cited from earlier work; for interaction with tubulin: ref [24]; for effect on MT assembly: ref [25]
Excerpt: The individual S100 proteins have been reported to interact inter alia with either NM or with tubulin, although with different binding affinities. […] Decreasing S100A1 is able to increase tubulin levels and this change alters neurite organisation in […]. […] However, it is ...

Recombinant S100P [5] = molecular target: T2, Recombinant S100P; test: ITC
αβ-tubulin [6] = molecular target: αβ-tubulin (UniProt P68363); test: SPR; αβ-tubulin immobilised on a CM5 chip, S100P in solution; 150 mM NaCl, 0.5 mM CaCl2, multiple cycles; Kd from the association and dissociation rate constants
αβ-tubulin [7] = molecular target: αβ-tubulin (UniProt P68363); test: SPR; αβ-tubulin immobilised on a CM5 chip (Biacore X100), S100P in solution; 150 mM NaCl, 0.5 mM CaCl2, single cycle; Kd from the association and dissociation rate constants
αβ-tubulin [8] = molecular target: αβ-tubulin (UniProt P68363); test: SPR; αβ-tubulin immobilised on a CM5 chip, S100P in solution; 300 mM NaCl (printed 300M), 0.5 mM CaCl2, multiple cycles; Kd from the extent of binding at or near equilibrium
αβ-tubulin [9] = molecular target: αβ-tubulin (UniProt P68363); test: SPR; αβ-tubulin immobilised on a CM5 chip, S100P in solution; 300 mM NaCl (printed 300M), 0.5 mM CaCl2, multiple cycles; Kd from the association and dissociation rate constants
αβ-tubulin [10] = molecular target: αβ-tubulin (UniProt P68363); test: SPR; αβ-tubulin immobilised on a CM5 chip, S100P in solution; 500 mM NaCl (printed 500M), 0.5 mM CaCl2, multiple cycles; Kd from the association and dissociation rate constants

With VNAAIATIKTKRTIQFVDWCPTGFKVGINY [VNA] the Kd (S100P; ITC, 25°C, 20 mM MES pH 6.1, 50 mM NaCl, 1.0 mM TCEP, 5 mM CaCl2, single site fit, peptide in cell, S100P titrated) was 62000 nM and the “affinity for S100P (in words)” value (S100P) was “relatively weak”.

For “T-DLV, DLV peptide with the N-terminal 10 amino acid TAT-HA2 tag for cell entry”, the percent reduction of the extent of binding of 1 µM S100P to α,β-tubulin at 20 µM peptide (Recombinant S100P [1]) was 50%.

For S100A4: S100 protein, the “change of Ca2+ Kd in complex with NMIIA fragments” value ([2]; ITC, preformed S100A4/NMIIA fragments, ref [57]) is given as “reduced by several orders of magnitude” and the Kd [2] is given as > 1000 nM.

“T-DIC, DIC peptide with the N-terminal 10 amino acid TAT-HA2 tag for cell entry” showed a percent reduction of the extent of binding of 1 µM S100P to α,β-tubulin at 20 µM peptide (Recombinant S100P [1]) of 50%.

With `C[C@H]1c2cccc(O)c2C(=O)C2=C(O)[C@]3(O)C(=O)C(C(N)=O)=C(O)[C@@H](N(C)C)[C@@H]3[C@@H](O)[C@@H]21` [doxycycline, reference compound] the “effect of doxycycline on tubulin polymerisation, parental cells” value [3] was “no significant differences” and the “effect of doxycycline on tubulin polymerisation, parental cells” value [4] was “no significant differences”.

In the case of “DIC peptide, the 26mer starting with DIC from β-tubulin”, the percent inhibition of the extent of binding of 1 µM S100P to α,β-tubulin at 20 µM peptide (Recombinant S100P [1]) is reported as > 50%.

In the case of IMNTFSVVPSPKVSDTVVEPYNATL-SVH, the “affinity for S100P (in words)” value (S100P) is reported as “very weak or nonbinder” and the “effect on extent of binding of S100P to α,β-tubulin (in words)” value (S100P - α,β-tubulin) is reported as “showed no such effect”.

For “RRRQRRKKRG [Tag, 10 amino acid TAT-HA2 tag for cell entry, reference compound]”, the “effect on extent of binding of S100P to α,β-tubulin (in words)” value (S100P - α,β-tubulin) was “showed no effect in the binding assay” and the “S100P-induced fold increase in migration in the presence of peptide” value (COS-7 S10 cells; 20 µM tagged peptide, 8 h, doxycycline-induced COS-7 S10 vs uninduced) was 3.5 fold.

For `COc1cc2c(c(OC)c1OC)-c1ccc(OC)c(=O)cc1[C@@H](NC(C)=O)CC2` [colchicine], the “effect on S100P-enhanced migration” value (COS-7 S10 cells; COS-7 S10, 20 nM taxol or 5 µM colchicine, 24 h) was “suppressed”, the “effect on S100P's stimulation of migration” value (COS-7 S10 cells; taxol to stabilise MTs or colchicine to dissociate MTs (abstract)) was “abolished” and the “reduction of migration by colchicine” value (COS-7 cells) was 30–70%. For the same molecule, the “effect on S100P-enhanced migration” value (Rama 37-T25 cells) was “suppressed”, the “effect on S100P-enhanced migration” value (HeLa-A3 cells) was “suppressed” and the “reduction of migration by colchicine” value (HeLa cells) was 30–70%. The “effect of colchicine on migration (in words)” value (MCF-7 cells; MCF-7, 5 µM time course, dose response 24 h) was “increase dramatically cell migration in a time and dose-dependent manner”, the “concentration abolishing the enhancement of migration” value (MCF-7 cells; MCF-7, colchicine) was > 10 µM and the “incubation time abolishing the enhancement of migration” value (MCF-7 cells; MCF-7, colchicine) was > 24 h. The “concentration range enhancing migration” value (MCF-7 cells; MCF-7, colchicine, Figure 6C) was 1 to 10 µM and the “reduction of migration by colchicine” value (Rama 37 cells) was 30–70%.

For S100B: S100 protein, the interaction with tubulin (tubulin) is given as “can interact with tubulin in a calcium-dependent manner”, the “effect on MT assembly” value (tubulin) is given as “disrupt the assembly of MT” and the Kd [2] is given as > 1000 nM.

For DLVLDRIRKLADQCTGLQGFLVFHSFGGGT [DLV peptide, the 30mer starting with DLV from α-tubulin], the Kd (Recombinant S100P [5]) was < 10000 nM and the percent inhibition of the extent of binding of 1 µM S100P to α,β-tubulin at 20 µM peptide (Recombinant S100P [1]) was > 50%.

B1: S100A1: S100 protein (protein, UniProt P23297 1-94, looked up)
Protein S100-A1: MGSELETAMETLINVFHAHSGKEGDKYKLSKKELKELLQTELSGFLDAQKDVDAVDKVMKELDENGDGEVDFQEYVVLVAALTVACNNFFWENS
In the case of B1, the interaction with tubulin (tubulin) is given as “can interact with tubulin in a calcium-dependent manner” and the “effect on MT assembly” value (tubulin) is given as “disrupt the assembly of MT”.

B2: S100A9/A8: S100A9/A8 (MRP14/MRP8) complex (protein, UniProt P06702 1-114; P05109 1-93, looked up)
Protein S100-A9: MTCKMSQLERNIETIINTFHQYSVKLGHPDTLNQGEFKELVRKDLQNFLKKENKNEKVIEHIMEDLDTNADKQLSFEEFIMLMARLTWASHEKMHEGDEGPGHHHKPGLGEGTP
Protein S100-A8: MLTELEKALNSIIDVYHKYSLIKGNFHAVYRDDLKKLLETECPQYIRKKGADVWFKELDINTDGAVNFQEFLILVIKMGVAAHKKSHEESHKE
In the case of B2, the “effect on tubulin polymerisation in vivo” value (tubulin; ref [27]) is given as “promotes tubulin polymerisation in vivo”.

B3: S100P (natural protein)
chain: MTELETAMGMIIDVFSRYSGSEGSTQTLTKGELKVLMEKELPGFLQSGKDKDAVDKLLKDLDANGDAQVDFSEFIVFVAAITSACHKYFEKAGLK
B3 showed a Kd (αβ-tubulin [6]) of 210 nM, a Kd (αβ-tubulin [7]) of 120 nM and a Kd (αβ-tubulin [8]) of 1100 nM. For the same molecule, the Kd (αβ-tubulin [9]) was 890 nM and the Kd (αβ-tubulin [10]) was 8300 nM.
